Experimental data published in ChEMBL document CHEMBL6178013, “Ferroptosis of Cancer Cells via Tubulin Degradation and Mitochondrial Dysfunction: A Novel Mechanism of Anticancer Effect for Small-Molecule Anion Transporters” (J Med Chem, 2025).
Values after ≈ are worked out from the molar mass of the structure shown. Active and inactive are the calls of the source. No cut-off for these calls is given here.

Experiments:
HeLa [1] = assay: Cytotoxicity against human HeLa cells assessed as decrease in ratio of green to red fluorescence at 0.1 to 1 uM incubated for 24 hrs by calcein-AM/7-AAD staining based analysis; type: functional, cell-based; conditions: dose 0.1-1 µM
[2] = Toxicity in male Balb/C nude mouse xenografted with human HeLa cells assessed as body weight change at 20 mg/kg, ip administered on every 2 days measured after 18 days; type: organism-based; conditions: in vivo, 432 h, time 18 day
HeLa [3] = assay: Induction of mitochondrial membrane permeability in human HeLa cells assessed as green fluorescence at 1 uM incubated for 24 hrs by JC-1 staining based analysis (reference value: 1.5 %); type: functional
HeLa [4] = assay: Induction of cell cycle arrest in human HeLa cells assessed as accumulation of cells at S phase at 0.5 uM incubated for 24 hrs by PI staining based flow cytometry relative to control; type: functional
Chloride [5] = assay: Binding affinity to chloride anions assessed as chloride efflux in egg-yolk L-alpha-phosphatidylcholine liposome model harboring intravesicular CsCl/extravesicular NaNO3
HeLa [6] = assay: Induction of cell cycle arrest in human HeLa cells assessed as accumulation of cells at S phase at 1 uM incubated for 24 hrs by PI staining based flow cytometry relative to control; type: functional
HeLa [7] = assay: Induction of mitochondrial membrane permeability in human HeLa cells at 0.625 to 5 uM incubated for 24 hrs by JC-1 staining based analysis; type: functional, cell-based; conditions: dose 0.625-5 µM
HeLa [8] = assay: Antitumor activity against human HeLa cells xenografted in male Balb/C nude mouse assessed as average tumor size at 10 mg/kg, ip administered on every 2 days measured after 18 days (reference value: 1995.1 mm3); type: functional; conditions: time 18 day
HeLa [9] = assay: Cytotoxicity against human HeLa cells incubated for 48 hrs by MTT assay; type: functional, cell-based
[10] = AUC (0 to t) in male CD-1 mouse at 1 mg/kg, iv measured for 0.083 to 48 hrs by HPLC/MS/MS analysis; type: ADME, organism-based; conditions: in vivo, time 0.083-48 hrs
HeLa [11] = assay: Induction of lipid peroxidation in human HeLa cells assessed as increase in green fluorescence at 0.1 to 1 uM incubated for 24 hrs by C11-BODIPY-581/591 probe based analysis; type: functional, cell-based; conditions: dose 0.1-1 µM
HeLa [12] = assay: Induction of mitochondrial membrane permeability in human HeLa cells assessed as red fluorescence at 0.1 uM incubated for 24 hrs by JC-1 staining based analysis (reference value: 98.5 %); type: functional
HeLa [13] = assay: Cytotoxicity against human HeLa cells assessed as decrease in cell viability at 0.01 to 10 uM pretreated with Z-VAD-FMK followed by compound addition by MTT assay; type: functional, cell-based; conditions: dose 0.01-10 µM
[14] = Cmax in male CD-1 mouse at 1 mg/kg, iv measured for 0.083 to 48 hrs by HPLC/MS/MS analysis; type: ADME, organism-based; conditions: in vivo, time 0.083-48 hrs
[15] = Tmax in male CD-1 mouse at 1 mg/kg, iv measured for 0.083 to 48 hrs by HPLC/MS/MS analysis; type: ADME, organism-based; conditions: in vivo, time 0.083-48 hrs
HeLa [16] = assay: Induction of lipid peroxidation in human HeLa cells assessed as increase in ROS generation incubated for 24 hrs by flow cytometry; type: functional, cell-based; conditions: dose 0.1-1 µM
HeLa [17] = assay: Effect on p53 pathway in human HeLa cells at 10 uM incubated for 48 hrs by KEGG analysis; type: functional, cell-based
Chloride [18] = assay: Binding affinity to chloride anions assessed as binding constant at 1:1 stoichiometry of compound and tetrabutylammonium chloride salt by 1H NMR spectroscopy
HepG2 = assay: Cytotoxicity against human HepG2 cells incubated for 48 hrs by MTT assay; type: functional, cell-based; conditions: HepG2, 48 h
HeLa [19] = assay: Induction of lipid peroxidation in human HeLa cells assessed as increase in MDA level incubated for 12 hrs by absorbance based assay; type: functional, cell-based; conditions: dose 0.1-1 µM
Chloride [20] = assay: Binding affinity to chloride anions in human HeLa cells assessed as chloride influx up to 5 uM incubated for 2 hrs by MQAE staining based analysis; type: cell-based
Tubulin (Homo sapiens) = Tubulin (Homo sapiens) (UniProt P68371+Q9H4B7+P0DPH7+P68366+Q13509+Q71U36+P04350+Q3ZCM7+P07437+P68363+Q9BQE3+Q6PEY2+Q13885+Q9BVA1+Q9BUF5); assay: Induction of tubulin degradation in human HeLa cells assessed as disruption of tubulin network at 10 uM incubated for 16 hrs by immunofluorescence based analysis; type: cell-based
HeLa [21] = assay: Induction of lipid peroxidation in human HeLa cells assessed as increase in Fe2+ level incubated for 12 hrs by absorbance based assay; type: functional, cell-based; conditions: dose 0.1-1 µM
HeLa [22] = assay: In vivo induction of ferroptosis in human HeLa cells xenografted in male Balb/C nude mouse assessed as increase in cleaved caspase-3 level administered intraperitoneally on every 2 days measured after 18 days by immunoblotting analysis; type: functional, organism-based; conditions: dose 10-20 mg/kg, route ip, time 18.0 day
[23] = MRT (0 to t) in male CD-1 mouse at 1 mg/kg, ip measured for 0.083 to 48 hrs by HPLC/MS/MS analysis; type: ADME, organism-based; conditions: in vivo, time 0.083-48 hrs
[24] = Aqueous solubility of compound; type: physicochemical
HeLa [25] = assay: Cytotoxicity against human HeLa cells assessed as decrease in cell viability at 0.01 to 10 uM pretreated with DFO followed by compound addition by MTT assay; type: functional, cell-based; conditions: dose 0.01-10 µM
HeLa [26] = assay: Cytotoxicity against human HeLa cells assessed as decrease in cell viability at 0.01 to 10 uM pretreated with Fer-1 followed by compound addition by MTT assay; type: functional, cell-based; conditions: dose 0.01-10 µM
Chloride [27] = assay: Binding affinity to chloride anions assessed as chloride efflux in egg-yolk L-alpha-phosphatidylcholine liposome model harboring intravesicular NaCl/extravesicular NaNO3
HeLa [28] = assay: Effect on ferroptosis pathway in human HeLa cells at 10 uM incubated for 48 hrs by KEGG analysis; type: functional, cell-based
[29] = AUC (0 to t) in male CD-1 mouse at 1 mg/kg, ip measured for 0.083 to 48 hrs by HPLC/MS/MS analysis; type: ADME, organism-based; conditions: in vivo, time 0.083-48 hrs
Chloride [30] = assay: Binding affinity to chloride anions in human HeLa cells assessed as increase in chloride influx at 1 uM measured after 15 mins by inverted fluorescence microscopy; type: cell-based
HeLa [31] = assay: Antitumor activity against human HeLa cells xenografted in male Balb/C nude mouse assessed as reduction in tumor weight at 10 mg/kg, ip administered on every 2 days measured after 18 days relative to control; type: functional; set-up: scale not given: the % may be the effect or the level left; conditions: time 18 day
HeLa [32] = assay: Induction of mitochondrial membrane permeability in human HeLa cells assessed as green fluorescence at 0.1 uM incubated for 24 hrs by JC-1 staining based analysis (reference value: 1.5 %); type: functional
MCF7 = assay: Cytotoxicity against human MCF7 cells incubated for 48 hrs by MTT assay; type: functional, cell-based; conditions: MCF7, 48 h
Chloride [33] = assay: Binding affinity to chloride anions assessed as transport of chloride anions across bulky nitrobenzene membrane in U-shaped tube harboring NaCl in donor phase and NaNO3 in receiving phase at 1 mM measured for 12 hrs by chloride ion selective electrode technique
HeLa [34] = assay: In vivo induction of ferroptosis in human HeLa cells xenografted in male Balb/C nude mouse assessed as increase in cleaved PARP level administered intraperitoneally on every 2 days measured after 18 days by immunoblotting analysis; type: functional, organism-based; conditions: dose 10-20 mg/kg, route ip, time 18.0 day

Activity (Chloride [5]): Active | AUC(0-t) [10]: 17500 ng·h/mL | Cmax [14]: 22700 ng/mL | Tmax [15]: 4.8 min | K (Chloride [18]): 5250 M⁻¹ | Activity (Tubulin (Homo sapiens)): Active | MRT last [23]: 24.9 h | solubility [24]: 200 µg/mL (≈ 333 µM) | Activity (Chloride [27]): Active | AUC(0-t) [29]: 3850 ng·h/mL | Activity (Chloride [33]): Active
SMILES: Fc1cc(-c2nc3c(C(F)(F)F)cc(C(F)(F)F)cc3[nH]2)cc(-c2nc3c(C(F)(F)F)cc(C(F)(F)F)cc3[nH]2)c1
Activity (HeLa [1]): Active | Activity [2]: Non-toxic | Activity (HeLa [3]): 66.8% | Activity (HeLa [4]): 36% | Activity (HeLa [6]): 48% | Activity (HeLa [7]): Active | Activity (HeLa [8]): 850.9 mm3 | IC50 (HeLa [9]): 120 nM | Activity (HeLa [11]): Active | Activity (HeLa [12]): 90.5% | Activity (HeLa [13]): Not active; Z-Vad-Fmk Exhibited Partial Protection For Cells | Activity (HeLa [16]): Dose-dependent-effect | Activity (HeLa [17]): Active | IC50 (HepG2): 2470 nM | Activity (HeLa [19]): Dose-dependent-effect | Activity (Chloride [20]): Active | Activity (HeLa [21]): Dose-dependent-effect | Activity (HeLa [22]): Dose-dependent-effect | Activity (HeLa [25]): inactive | Activity (HeLa [26]): inactive | Activity (HeLa [28]): Active | Activity (Chloride [30]): inactive | Activity (HeLa [31]): 57% | Activity (HeLa [32]): 9.5% | IC50 (MCF7): 770 nM | Activity (HeLa [34]): Dose-dependent-effect
